Test results as given in patent publication US20210213104A1, “GLUCAGON AND GLP-1 CO-AGONISTS FOR THE TREATMENT OF CHRONIC KIDNEY DISEASE AND DIABETIC KIDNEY DISEASE IN TYPE 2 DIABETES” (MEDIMMUNE LIMITED, priority 2020, published 2021).
Values joined by “and” are separate entries in the source; they are usually repeats but may differ in a detail not shown here. Equal entries are not always repeated.

Assays:
brown adipose tissue = assay: [^18F]FDG uptake by PET imaging (separate study); type: in vivo, mice
Excerpt: Finally, glucose uptake was elevated in brown adipose tissue in Cotadutide treated mice, which was confirmed in a separate study of [^18F]FDG uptake by PET imaging.

[1] = system: subjects with T2DM and renal impairment; assay: Phase 2a: HbA1c blood test; type: in vivo, human; details: ITT; for HbA1c LS Mean Change / HbA1c Change from Baseline, Mean / HbA1c Difference in LS Mean Change (vs Placebo): Day 1 to Day 32; for HbA1c LS Mean Change: ANCOVA
Description: (§1) Cotadutide was titrated from 50 μg up to 300 μg and administered once daily by subcutaneous (SC) injection over 32 days.
(§2) Cotadutide was administered at 50 μg once daily for 4 days, followed by 100 μg daily for 7 days, 200 μg daily for 7 days, and 300 μg daily for 14 days (n=20). Placebo was administered one daily for 32 days (n=20). Cotadutide and placebo were administered in the morning. Dosing commenced following predose baseline vital signs, blood tests (including HbA1c), an electrocardiogram (ECG), body weight measurement, and bioimpedance spectroscopy (BIS). Subjects then returned for daily dosing or remained overnight locally until Day 5, and thereafter, had visits at weekly intervals until a maintenance dose of 300 μg was established. Thus, Cotadutide or placebo was administered at the study site by study personal for the first four doses and on site on Days 5, 12, 19, and 32. At all other times, subjects preformed dosing at home.
Blood samples were collected to evaluate blood glucose (fasting) and HbA1c levels.

Phase 2a: body weight = type: in vivo, human; details: for Weight, Absolute Change From Day 1, Difference in LS Mean Change (vs Placebo) / Weight, Absolute Change From Day 1, LS Mean Change / Weight, Percent Change from Day 1, Difference in LS Mean Change (vs Placebo) / Weight, Percent Change from Day 1, LS Mean Change: ANCOVA; for Weight, Absolute Change From Day 1, Difference in LS Mean Change (vs Placebo) / Weight, Absolute Change From Day 1, LS Mean Change / Weight, Percent Change from Day 1, Difference in LS Mean Change (vs Placebo) / Weight, Percent Change from Day 1, LS Mean Change / Weight, Absolute Change From Day 1, Mean / Weight, Absolute Change From Day 1, Median / Weight, Percent Change from Day 1, Mean / Weight, Percent Change from Day 1, Median / Weight, End of Dosing (Day 33), Mean / Weight, End of Dosing (Day 33), Median: ITT
Description: as §1, §2
Weight was measured after the subject had toileted and removed bulky clothing, including shoes. Whenever possible, the same calibrated scale was used for each measurement for any given subject.

[2] = system: subjects with T2DM and renal impairment; assay: Phase 2a: urine albumin:creatinine ratio (UACR); type: in vivo, human; details: for UACR Relative Change from Baseline to End of Dosing (vs. Placebo): subjects with mean UACR > 3 mg/mmol at baseline (micro- or macroalbuminuria), 1-exponential of fold change
Description: as §1, §2
Mean urine albumin:creatinine ratio (UACR) was lower in the Cotadutide dose group compared to placebo from Day 19 until the end of dosing, and for 8 days into the follow-up period.

[3] = system: subjects with T2DM and renal impairment; assay: Phase 2a: eGFR (CKD-EPI equation); type: in vivo, human; details: Day 33 / after 32 days
Excerpt: Inclusion criteria: • Male and female subjects, aged ≥18 years and <85 years at screening; • Body mass index (BMI) between 25 kg/m^2 and 40 kg/m^2 (inclusive) at screening; • HbA1c range of 6.5% to 10.5% (inclusive) at the time of screening; • Diagnosed with T2DM with glucose control managed with any insulin and/or oral therapy combination where no significant dose changes of oral therapy of more than 50% had occurred in the 3 months prior to screening (at least 50% of the subject N=20) enrolled were required to have been taking insulin at a total daily dose of ≥20 units); • Renal impairment with eGFR ≥30 and <60 mL/min/1.73 m^2 at screening. Approximately 16 subjects (40%) were required to have a screening eGFR ≥45 and <60 mL/min/1.73 m^2 (in order to ensure subjects at both ends of the moderate renal impairment spectrum were adequately represented). eGFR was determined by the chronic kidney disease-epidemiology collaboration (CKD-EPI) equation. (eGFR=141×min(SCr/κ, 1)^α×max (SCr/κ, 1)^[…]^Age×1.018 [if female]×1.159 [if Black]; wherein SCr (standardized serum creatinine)=mg/dL, κ=0.7 (females) or 0.9 (males), α=−0.329 (females) or −0.411 (males), min=indicates the minimum of SCr/κ or 1, max=indicates the maximum of SCr/κ or 1, and age=years)

[4] = system: subjects with T2DM and renal impairment; assay: Phase 2a: bioimpedance spectroscopy (fluid status); type: in vivo, human; details: baseline (Day 1) to end of dosing
Description: Assessment of body composition, including but not limited to extracellular and intracellular volume and total body water, were conducted with bioimpedance spectroscopy using the SFB7 device produced by ImpediMed. Bioimpedance spectroscopy measures were not conducted in any subject with a pacemaker or implantable electronic device, e.g., an implantable cardiac defibrillator, as described in the manufacturer's instructions.
Bioimpedance spectroscopy was performed prior to dosing on Visit 4 (Day 1; Baseline) and following dosing on Visits 6 (Day 5), 7 (Day 12), 8 (Day 19), and 9 (Day 32). Subjects were to void their bladder and abstain from exercising 2 hours prior to the assessment. The subjects laid in a supine position 5 minutes before the measurement, while not touching any metal surfaces. The subjects' limbs were not crossed, the legs were completely separated, and the arms were not to touch the torso. For subjects who could not effectively separate their inner thighs, insulating material (e.g., a towel) may have been between the legs. The bioimpedance spectroscopy was set to make three repeat measurements. The subject was to remain still and relaxed during the measurement. The points of contact for the electrodes were marked on the subject's skin and the same positions used at all occasions. […]

[5] = Day 1 to Day 33, Insulin Dose < 20 U/day subgroup
[6] = Day 1 to Day 33, Insulin Dose ≥ 20 U/day subgroup
[7] = Insulin Dose < 20 U/day subgroup
[8] = Insulin Dose ≥ 20 U/day subgroup
[9] = subjects with mean UACR > 3 mg/mmol at baseline
[10] = subjects with mean UACR > 3 mg/mmol at baseline, ITT

CCCCCCCCCCCCCCCC(=O)N[C@@H](CCC(=O)NCCCC[C@H](NC(=O)[C@H](CC(=O)O)NC(=O)[C@H](CO)NC(=O)[C@@H](NC(=O)[C@H](Cc1ccccc1)NC(=O)[C@@H](NC(=O)CNC(=O)[C@H](CCC(N)=O)NC(=O)[C@H](CO)NC(=O)[C@@H](N)Cc1c[nH]cn1)[C@@H](C)O)[C@@H](C)O)C(=O)N[C@@H](CO)C(=O)N[C@@H](CCC(=O)O)C(=O)N[C@@H](Cc1ccc(O)cc1)C(=O)N[C@@H](CC(C)C)C(=O)N[C@@H](CC(=O)O)C(=O)N[C@@H](CO)C(=O)N[C@@H](CCC(=O)O)C(=O)N[C@@H](CCCNC(=N)N)C(=O)N[C@@H](C)C(=O)N[C@@H](CCCNC(=N)N)C(=O)N[C@@H](CC(=O)O)C(=O)N[C@@H](Cc1ccccc1)C(=O)N[C@H](C(=O)N[C@@H](C)C(=O)N[C@@H](Cc1c[nH]c2ccccc12)C(=O)N[C@@H](CC(C)C)C(=O)N[C@@H](CCC(=O)O)C(=O)N[C@@H](C)C(=O)NCC(=O)NCC(=O)O)C(C)C)C(=O)O [Cotadutide]
[^18F]FDG uptake by PET imaging, brown adipose tissue (brown adipose tissue): confirmed
HbA1c LS Mean Change ([1]; Insulin Dose < 20 U/day): −0.66%
HbA1c LS Mean Change ([1]; Insulin Dose ≥ 20 U/day): −0.57%
HbA1c LS Mean Change ([1]; Total): −0.65% and −0.7%
HbA1c LS Mean Change ([1]; Total, listed as MEDI0382): −0.65%
HbA1c Change from Baseline, Mean ([1]; Insulin Dose < 20 U/day): −0.829%
HbA1c Difference in LS Mean Change (vs Placebo) ([1]; Insulin Dose < 20 U/day): −0.59%
HbA1c Difference in LS Mean Change (vs Placebo) ([1]; Insulin Dose ≥ 20 U/day): −0.55%
HbA1c Change from Baseline, Mean ([1]; Total): −0.653%
HbA1c Difference in LS Mean Change (vs Placebo) ([1]; Total): −0.66%
Hemoglobin A1C, Day 32, Mean ([1]; Insulin Dose < 20 U/day): 6.943%
Hemoglobin A1C, Day 32, Median ([1]; Insulin Dose < 20 U/day): 6.900%
Hemoglobin A1C, Day 32, Mean ([1]; Insulin Dose ≥ 20 U/day): 7.392%
Hemoglobin A1C, Day 32, Median ([1]; Insulin Dose ≥ 20 U/day): 7.300%
Hemoglobin A1C, Day 32, Mean ([1]; Total): 7.226%
Hemoglobin A1C, Day 32, Median ([1]; Total): 7.200%
weight loss, percentage (Phase 2a: body weight; <20 U/day Insulin group): −5.38%
Weight, Absolute Change From Day 1, Difference in LS Mean Change (vs Placebo) (Phase 2a: body weight; [5]): -3.99 kg
Weight, Absolute Change From Day 1, LS Mean Change (Phase 2a: body weight; [5]): -4.72 kg
Weight, Percent Change from Day 1, Difference in LS Mean Change (vs Placebo) (Phase 2a: body weight; [5]): −4.74%
Weight, Percent Change from Day 1, LS Mean Change (Phase 2a: body weight; [5]): −5.38%
Weight, Absolute Change From Day 1, Mean (Phase 2a: body weight; [5]): -4.74 kg
Weight, Absolute Change From Day 1, Median (Phase 2a: body weight; [5]): -4.50 kg
Weight, Percent Change from Day 1, Mean (Phase 2a: body weight; [5]): −5.26%
Weight, Percent Change from Day 1, Median (Phase 2a: body weight; [5]): −4.53%
Weight, Absolute Change From Day 1, Difference in LS Mean Change (vs Placebo) (Phase 2a: body weight; [6]): -2.79 kg
Weight, Absolute Change From Day 1, LS Mean Change (Phase 2a: body weight; [6]): -2.66 kg
Weight, Percent Change from Day 1, Difference in LS Mean Change (vs Placebo) (Phase 2a: body weight; [6]): −2.66%
Weight, Percent Change from Day 1, LS Mean Change (Phase 2a: body weight; [6]): −2.69%
Weight, Absolute Change From Day 1, Mean (Phase 2a: body weight; [6]): -2.60 kg
Weight, Absolute Change From Day 1, Median (Phase 2a: body weight; [6]): -1.90 kg
Weight, Percent Change from Day 1, Mean (Phase 2a: body weight; [6]): −2.61%
Weight, Percent Change from Day 1, Median (Phase 2a: body weight; [6]): −2.00%
Weight, Absolute Change From Day 1, Difference in LS Mean Change (vs Placebo) (Phase 2a: body weight; Day 1 to Day 33, Total): -3.28 kg
Weight, Absolute Change From Day 1, LS Mean Change (Phase 2a: body weight; Day 1 to Day 33, Total): -3.41 kg
Weight, Percent Change from Day 1, Difference in LS Mean Change (vs Placebo) (Phase 2a: body weight; Day 1 to Day 33, Total): −3.47%
Weight, Percent Change from Day 1, LS Mean Change (Phase 2a: body weight; Day 1 to Day 33, Total): −3.69%
Weight, Absolute Change From Day 1, Mean (Phase 2a: body weight; Day 1 to Day 33, Total): -3.39 kg
Weight, Absolute Change From Day 1, Median (Phase 2a: body weight; Day 1 to Day 33, Total): -3.60 kg
Weight, Percent Change from Day 1, Mean (Phase 2a: body weight; Day 1 to Day 33, Total): −3.59%
Weight, Percent Change from Day 1, Median (Phase 2a: body weight; Day 1 to Day 33, Total): −3.68%
LS mean reduction in absolute body weight (Phase 2a: body weight; Day 1 to Day 33, all subjects): -3.41 kg
LS mean reduction in percentage body weight (Phase 2a: body weight; Day 1 to Day 33, all subjects): −3.69% and −3.7%
Weight, End of Dosing (Day 33), Mean (Phase 2a: body weight; [7]): 91.27 kg
Weight, End of Dosing (Day 33), Median (Phase 2a: body weight; [7]): 88.70 kg
Weight, End of Dosing (Day 33), Mean (Phase 2a: body weight; [8]): 94.13 kg
Weight, End of Dosing (Day 33), Median (Phase 2a: body weight; [8]): 96.15 kg
Weight, End of Dosing (Day 33), Mean (Phase 2a: body weight; Total): 93.08 kg
Weight, End of Dosing (Day 33), Median (Phase 2a: body weight; Total): 94.10 kg
weight loss, percentage (Phase 2a: body weight; ≥20 U/day Insulin group): −2.69%
Urine Albumin/Creatinine, End of Dosing (Day 33), Mean ([2]; Total, ITT): 10.06 mg/mmol
Urine Albumin/Creatinine, End of Dosing (Day 33), Median ([2]; Total, ITT): 2.00 mg/mmol
UACR LS Mean Change ([2]; baseline to Day 33, ANCOVA, Total, ITT): -3.05 mg/mmol
UACR Change from Baseline, Mean ([2]; baseline to Day 33, Total, ITT): -3.05 mg/mmol
UACR Change from Baseline, Median ([2]; baseline to Day 33, Total, ITT): -0.60 mg/mmol
UACR Difference in LS Mean Change (vs Placebo) ([2]; baseline to Day 33, Total, ITT): -5.07 mg/mmol
Fold Change in Log-Transformed UACR (vs. Placebo) ([2]; baseline to end of dosing, subjects with mean UACR > 3 mg/mmol at baseline): −0.70
UACR Geometric Mean (end of dosing relative to baseline) [2, 9]: 0.511
UACR Geometric Mean Ratio (vs. Placebo) [2, 9]: 0.4945
UACR Relative Change from Baseline to End of Dosing (vs. Placebo) [2]: 50.6%
UACR Relative Change from Baseline to End of Dosing (vs. Placebo) ([2]; listed as MEDI0382): 50.55%
Log-transformed UACR, End of Dosing (Day 33), Mean [2, 10]: 1.767
Log-transformed UACR, End of Dosing (Day 33), Median [2, 10]: 1.253
change in eGFR from baseline to end of dosing vs placebo [3]: No statistically significant difference
change in eGFR from baseline to end of dosing vs placebo ([3]; listed as cotadutide): no significant changes
changes in total body water volume, intracellular fluid volume, or extracellular fluid volume vs placebo [4]: no clinically meaningful differences
